Measurements published in EPA's ToxValDB 9.5 (doi:10.2903/j.efsa.2009.182r).

Columns and labels:
Apis mellifera = settings: acute; duration: 48 hours; oral; unspecified; mortality
Rattus norvegicus = settings: for NOAEL: inhalation
Coturnix japonica = settings: acute; oral; mortality
Oncorhynchus mykiss = settings: acute; duration: 96 hours; mortality
Tagia sp. = settings: acute; duration: 14 days; mortality
[1] = chronic, duration: 2 years, no effects
[2] = reproduction developmental, mortality
[3] = subchronic, duration: 90 days, no effects

Row | SMILES | LD50 (Apis mellifera) | LD50 (Rattus norvegicus; acute, oral, mortality) | NOAEL (Rattus norvegicus; [1]) | NOAEL (Rattus norvegicus; [2]) | NOAEL (Rattus norvegicus; [3]) | LD50 (Coturnix japonica) | LC50 (Oncorhynchus mykiss) | LC50 (Tagia sp.) | NOAEL (Rattus norvegicus; developmental, duration: 10 days, development) | NOAEL (Rattus norvegicus; subchronic, duration: 90 days, mortality)
1 | [Al+3].[P-3] [Aluminum phosphide] | 0.24 µg/piece | 8.7 mg/kg-day | 1.1 mg/kg-day | 1.9 mg/kg-day | 1.1 mg/kg-day | 49 mg/kg-day | 4.68 ng/mL | 664 mg/kg | – | –
2 | P [Phosphine] | – | – | 1.1 mg/kg-day | 1.9 mg/kg-day | 1.1 mg/kg-day | – | – | – | 1.9 mg/kg-day | 1.11 mg/kg-day
